Data from BindingDB's records for doi:10.1016/S0960-894X(01)80767-8 (1993).
pKi: −log10 of the molar value.

Molecular target: L-type calcium channel (Cavia porcellus)
Experiment: Displacement of [3H]diltiazem from L-type calcium channel of guinea pig striated muscle

Row | SMILES | pKi
1 | COc1ccc([C@@H]2Sc3ccccc3N(CCN(C)C)C(=O)[C@@H]2C)cc1 [(2R,3S)-5-(2-Dimethylamino-ethyl)-2-(4-methoxy-phenyl)-3-methyl-2,3-dihydro-5H-benzo[b][1,4]thiazepin-4-one] | 6.27
2 | COc1ccc([C@@H]2Sc3cc(OC)ccc3N(CCN(C)C)C(=O)[C@@H]2C)cc1 [(2R,3S)-5-(2-Dimethylamino-ethyl)-8-methoxy-2-(4-methoxy-phenyl)-3-methyl-2,3-dihydro-5H-benzo[b][1,4]thiazepin-4-one] | 7.07
3 | COc1ccc([C@@H]2Sc3cc(OC)ccc3N(CCN(C)C)C(=O)[C@@H]2OC(C)=O)cc1 [Acetic acid (2S,3S)-5-(2-dimethylamino-ethyl)-8-methoxy-2-(4-methoxy-phenyl)-4-oxo-2,3,4,5-tetrahydro-benzo[b][1,4]thiazepin-3-yl ester] | 7.38
